The values below come from US6750239B2, “Pyrazole-derived kinase inhibitors and uses thereof” (Vertex Pharmaceuticals Incorporated, priority 2001, dated 2004).

In the first test the target is activated ERK2 (Homo sapiens, UniProt P28482). The test is described as follows: ERK2 inhibition spectrophotometric coupled-enzyme assay. It counts as biochemical.
Sequence of activated ERK2 (P28482 whole entry): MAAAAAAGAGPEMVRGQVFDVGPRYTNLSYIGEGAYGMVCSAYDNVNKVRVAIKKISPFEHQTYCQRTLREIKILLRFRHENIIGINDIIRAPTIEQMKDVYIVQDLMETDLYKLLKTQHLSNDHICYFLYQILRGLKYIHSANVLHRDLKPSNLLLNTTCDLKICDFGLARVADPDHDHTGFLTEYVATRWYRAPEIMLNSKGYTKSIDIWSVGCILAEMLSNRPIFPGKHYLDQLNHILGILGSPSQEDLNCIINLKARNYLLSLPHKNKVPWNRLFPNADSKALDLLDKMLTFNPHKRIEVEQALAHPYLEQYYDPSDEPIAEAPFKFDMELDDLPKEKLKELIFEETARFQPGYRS
Settings: not given
The procedure:
Compounds are assayed for the inhibition of ERK2 by a spectrophotometric coupled-enzyme assay (Fox et al (1998) Protein Sci 7, 2249). In this assay, a fixed concentration of activated ERK2 (10 nM) is incubated with various concentrations of the compound in DMSO (2.5%) for 10 min. at 30° C. in 0.1 M HEPES buffer, pH 7.5, containing 10 mM MgCl2, 2.5 mM phosphoenolpyruvate, 200 μM NADH, 150 μg/mL pyruvate kinase, 50 μg/mL lactate dehydrogenase, and 200 μM erktide peptide. The reaction is initiated by the addition of 65 μM ATP. The rate of decrease of absorbance at 340 nm is monitored, which indicates the extent of uninhibited enzyme present in the assay. The IC50 is evaluated from the rate data as a function of inhibitor concentration.
The compound numbers correspond to the compound numbers in Tables 1-3.
Broadly, the Ki is a measure of affinity in units of concentration, obtained from inhibition or displacement. Regarding `O=C(N[C@H](CO)c1ccc(F)c(Cl)c1)c1cc(-c2[nH]ncc2-c2ccc(CNCCCl)c(Cl)c2)c[nH]1` [II-35], the Ki was under 1 µM.
In the case of `O=C(N[C@H](CO)c1ccc(F)c(Cl)c1)c1cc(-c2[nH]ncc2-c2ccc(CN(CCCl)CCCl)c(Cl)c2)c[nH]1` [II-36], the Ki is under 1 µM.

The same test, now with this note: activated ERK2 10 nM, 65 μM ATP, 30° C., pH 7.5; read-out: ERK2 Inhibitory Activity (Ki class).
Consider “4-{4-[3-Chloro-4-(methanesulfonylamino-methyl)-phenyl]-1H-pyrazol-3-yl}-1H-pyrrole-2-carboxylic acid [1-(3-chloro-4-fluoro-phenyl)-2-hydroxy-ethyl]-amide [II-2]”, for which the Ki is under 1 µM.
Turning to `CC(=O)NC(CO)C(=O)NCc1ccc(-c2c[nH]nc2-c2c[nH]c(C(=O)N[C@H](CO)c3ccc(F)c(Cl)c3)c2)cc1Cl` (stereo in doubt) [II-20, 4-(4-{4-[(2-Acetylamino-3-hydroxy-propionylamino)-methyl]-3-chloro-phenyl}-1H-pyrazol-3-yl)-1H-pyrrole-2-carboxylic acid [1-(3-chloro-4-fluoro-phenyl)-2-hydroxy-ethyl]-amide], the Ki is under 1 µM.
For the molecule `CS(=O)(=O)CC(=O)NCc1ccc(-c2cn[nH]c2-c2c[nH]c(C(=O)N[C@H](CO)c3ccccc3)c2)cc1Cl` [II-1], the Ki was under 1 µM.
Still for that read-out and setting: the result for `O=C(CCO)NCc1ccc(-c2cn[nH]c2-c2c[nH]c(C(=O)N[C@H](CO)c3ccccc3)c2)cc1Cl` [II-4] reads under 1 µM.
On the same count and under the same terms, with `CC(=O)NC(CCO)C(=O)NCc1ccc(-c2cn[nH]c2-c2c[nH]c(C(=O)NC(CO)c3ccc(F)c(Cl)c3)c2)cc1Cl` (stereo not shown) [II-5] the figure was under 1 µM; with `C[S+]([O-])CC(=O)NCc1ccc(-c2cn[nH]c2-c2c[nH]c(C(=O)NC(CO)c3ccc(F)c(Cl)c3)c2)cc1Cl` (stereo not shown) [II-6], under 1 µM.
For the molecule `O=C(CCCO)NCc1ccc(-c2c[nH]nc2-c2c[nH]c(C(=O)NC(CO)c3ccc(F)c(Cl)c3)c2)cc1Cl` (stereo not shown) [II-8, 4-(4-{3-Chloro-4-[(4-hydroxy-butyrylamino)-methyl]-phenyl}-1H-pyrazol-3-yl)-1H-pyrrole-2-carboxylic acid [1-(3-chloro-4-fluoro-phenyl)-2-hydroxy-ethyl]-amide], the inhibitory constant (Ki) is under 1 µM.
For the molecule `CC(=O)N[C@@H](C)C(=O)NCc1ccc(-c2cn[nH]c2-c2c[nH]c(C(=O)NC(CO)c3ccc(F)c(Cl)c3)c2)cc1Cl` (stereo partly shown) [II-10], the Ki is under 1 µM.
Same read-out and setting: with `CC(=O)N[C@H](C)C(=O)NCc1ccc(-c2cn[nH]c2-c2c[nH]c(C(=O)NC(CO)c3ccc(F)c(Cl)c3)c2)cc1Cl` (stereo partly shown) [II-11] the figure was under 1 µM.
As for `CC(=O)N[C@@H](CS)C(=O)NCc1ccc(-c2cn[nH]c2-c2c[nH]c(C(=O)NC(CO)c3ccc(F)c(Cl)c3)c2)cc1Cl` (stereo partly shown) [II-12], the Ki is under 1 µM.
Still for that read-out and setting: the result for `CN(C)CC(=O)NCc1ccc(-c2cn[nH]c2-c2c[nH]c(C(=O)NC(CO)c3ccc(F)c(Cl)c3)c2)cc1Cl` (stereo not shown) [II-13] reads under 1 µM; that for `CC(C)(C)OC(=O)N[C@@H](CO)C(=O)NCc1ccc(-c2cn[nH]c2-c2c[nH]c(C(=O)NC(CO)c3ccc(F)c(Cl)c3)c2)cc1Cl` (stereo partly shown) [II-14], under 1 µM; that for `N[C@@H](CO)C(=O)NCc1ccc(-c2cn[nH]c2-c2c[nH]c(C(=O)NC(CO)c3ccc(F)c(Cl)c3)c2)cc1Cl` (stereo partly shown) [II-15], under 1 µM.
Same read-out and setting: with `CC(=O)NC(CC[S+](C)[O-])C(=O)NCc1ccc(-c2cn[nH]c2-c2c[nH]c(C(=O)NC(CO)c3ccc(F)c(Cl)c3)c2)cc1Cl` (stereo not shown) [II-16] the figure was under 1 µM; with `CC(C)(C)OC(=O)N[C@H](CO)C(=O)NCc1ccc(-c2cn[nH]c2-c2c[nH]c(C(=O)NC(CO)c3ccc(F)c(Cl)c3)c2)cc1Cl` (stereo partly shown) [II-17], under 1 µM; with `N[C@H](CO)C(=O)NCc1ccc(-c2cn[nH]c2-c2c[nH]c(C(=O)NC(CO)c3ccc(F)c(Cl)c3)c2)cc1Cl` (stereo partly shown) [II-18], under 1 µM.
Regarding `CC(=O)NC(CO)C(=O)NCc1ccc(-c2cn[nH]c2-c2c[nH]c(C(=O)N[C@H](CO)c3cccc(Cl)c3)c2)cc1Cl` (stereo partly shown) [II-19], the inhibition constant (Ki) was under 1 µM.
`CCCCNCc1ccc(-c2cn[nH]c2-c2c[nH]c(C(=O)N[C@H](CO)c3ccc(F)c(Cl)c3)c2)cc1Cl` [II-22]: the Ki is under 1 µM.
On to `CCCCN(CCCC)Cc1ccc(-c2cn[nH]c2-c2c[nH]c(C(=O)N[C@H](CO)c3ccc(F)c(Cl)c3)c2)cc1Cl` [II-23], for which the Ki was under 1 µM.
Take `CCCNCc1ccc(-c2cn[nH]c2-c2c[nH]c(C(=O)N[C@H](CO)c3ccc(F)c(Cl)c3)c2)cc1Cl` [II-27]: the Ki is under 1 µM.
Same read-out and setting: with `CCCN(CCC)Cc1ccc(-c2cn[nH]c2-c2c[nH]c(C(=O)N[C@H](CO)c3ccc(F)c(Cl)c3)c2)cc1Cl` [II-28] the figure was under 1 µM.
On the same count and under the same terms, the result for `CCOC(=O)CNCc1ccc(-c2c[nH]nc2-c2c[nH]c(C(=O)N[C@H](CO)c3ccc(F)c(Cl)c3)c2)cc1Cl` [II-29] reads under 1 µM; that for `O=C(N[C@H](CO)c1ccc(F)c(Cl)c1)c1cc(-c2[nH]ncc2-c2ccc(CNCCO)c(Cl)c2)c[nH]1` [II-30], under 1 µM.
Still for that read-out and setting: with `CC(O)CNCc1ccc(-c2cn[nH]c2-c2c[nH]c(C(=O)N[C@H](CO)c3ccc(F)c(Cl)c3)c2)cc1Cl` (stereo partly shown) [II-31] the figure was under 1 µM; with `CC(O)CCNCc1ccc(-c2cn[nH]c2-c2c[nH]c(C(=O)N[C@H](CO)c3ccc(F)c(Cl)c3)c2)cc1Cl` (stereo partly shown) [II-32], under 1 µM; with `N#CCNCc1ccc(-c2cn[nH]c2-c2c[nH]c(C(=O)N[C@H](CO)c3ccc(F)c(Cl)c3)c2)cc1Cl` [II-33], under 1 µM.
On to `CCN(CC)Cc1ccc(-c2cn[nH]c2-c2c[nH]c(C(=O)N[C@H](CO)c3ccc(F)c(Cl)c3)c2)cc1Cl` [II-34], for which the Ki was under 1 µM.
In the case of `CC(C)(C)OC(=O)NCCNCc1ccc(-c2cn[nH]c2-c2c[nH]c(C(=O)N[C@H](CO)c3ccc(F)c(Cl)c3)c2)cc1Cl` [II-37], the Ki was under 1 µM.
On the same count and under the same terms, the result for `CCN(CC)CC(=O)NCc1ccc(-c2cn[nH]c2-c2c[nH]c(C(=O)N[C@H](CO)c3ccc(F)c(Cl)c3)c2)cc1Cl` [II-38] reads under 1 µM; that for `CC(CC(=O)N(C)C)NCc1ccc(-c2cn[nH]c2-c2c[nH]c(C(=O)N[C@H](CO)c3ccc(F)c(Cl)c3)c2)cc1Cl` (stereo partly shown) [II-52], under 1 µM.
Regarding `CCC(=O)CNCc1ccc(-c2cn[nH]c2-c2c[nH]c(C(=O)N[C@H](CO)c3ccc(F)c(Cl)c3)c2)cc1Cl` [II-53], the Ki is under 1 µM.
Turning to `CC(C)N(C)Cc1ccc(-c2cn[nH]c2-c2c[nH]c(C(=O)N[C@H](CO)c3ccc(F)c(Cl)c3)c2)cc1Cl` [II-54], the Ki is under 1 µM.
Turning to `CCOC(=O)C(C)NCc1ccc(-c2cn[nH]c2-c2c[nH]c(C(=O)N[C@H](CO)c3ccc(F)c(Cl)c3)c2)cc1Cl` (stereo partly shown) [II-55], the Ki was under 1 µM.
Turning to `N[C@H](CO)C(=O)NCc1ccc(-c2cn[nH]c2-c2c[nH]c(C(=O)N[C@H](CO)c3ccc(F)c(Cl)c3)c2)cc1Cl` [II-56], the Ki was under 1 µM.
On the same count and under the same terms, the result for `CC(C)NCc1ccc(-c2cn[nH]c2-c2c[nH]c(C(=O)N[C@H](CO)c3ccc(F)c(Cl)c3)c2)cc1C(F)(F)F` [II-57] reads under 1 µM.
For the molecule `CC(C(=O)O)N(C)Cc1ccc(-c2cn[nH]c2-c2c[nH]c(C(=O)N[C@H](CO)c3ccc(F)c(Cl)c3)c2)cc1C(F)(F)F` (stereo partly shown) [II-58], the Ki was under 1 µM.
On the same count and under the same terms, with `CNC(=O)C(C)N(C)Cc1ccc(-c2cn[nH]c2-c2c[nH]c(C(=O)N[C@H](CO)c3ccc(F)c(Cl)c3)c2)cc1C(F)(F)F` (stereo partly shown) [II-59] the figure was under 1 µM; with `CC(NCc1ccc(-c2cn[nH]c2-c2c[nH]c(C(=O)N[C@H](CO)c3ccc(F)c(Cl)c3)c2)cc1C(F)(F)F)C(=O)N(C)C` (stereo partly shown) [II-60], under 1 µM.
As for `CC(C(=O)N(C)C)N(C)Cc1ccc(-c2cn[nH]c2-c2c[nH]c(C(=O)N[C@H](CO)c3ccc(F)c(Cl)c3)c2)cc1C(F)(F)F` (stereo partly shown) [II-61], the Ki was under 1 µM.
Regarding `CCOC(=O)C(C)NCc1ccc(-c2cn[nH]c2-c2c[nH]c(C(=O)N[C@H](CO)c3ccc(F)c(Cl)c3)c2)cc1C(F)(F)F` (stereo partly shown) [II-62], the Ki was under 1 µM.
On to `CCOC(=O)C(C)N(C)Cc1ccc(-c2cn[nH]c2-c2c[nH]c(C(=O)N[C@H](CO)c3ccc(F)c(Cl)c3)c2)cc1Cl` (stereo partly shown) [II-63], for which the Ki was under 1 µM.
As for `CCOC(=O)C(C)N(C)Cc1ccc(-c2cn[nH]c2-c2c[nH]c(C(=O)N[C@H](CO)c3ccc(F)c(Cl)c3)c2)cc1C(F)(F)F` (stereo partly shown) [II-64], the Ki was under 1 µM.
Same read-out and setting: with `CNC(=O)C(C)NCc1ccc(-c2cn[nH]c2-c2c[nH]c(C(=O)N[C@H](CO)c3ccc(F)c(Cl)c3)c2)cc1C(F)(F)F` (stereo partly shown) [II-65] the figure was under 1 µM.
Still for that read-out and setting: with `CC(NCc1ccc(-c2cn[nH]c2-c2c[nH]c(C(=O)N[C@H](CO)c3ccc(F)c(Cl)c3)c2)cc1Cl)C(=O)N(C)C` (stereo partly shown) [II-66] the figure was under 1 µM; with `CN[C@@H](CO)C(=O)NCc1ccc(-c2cn[nH]c2-c2c[nH]c(C(=O)N[C@H](CO)c3ccc(F)c(Cl)c3)c2)cc1Cl` [II-67], under 1 µM.
Still for that read-out and setting: with `NCCNCc1ccc(-c2cn[nH]c2-c2c[nH]c(C(=O)N[C@H](CO)c3ccc(F)c(Cl)c3)c2)cc1Cl` [II-68] the figure was under 1 µM.
With `C[C@H](N)C(=O)NCc1ccc(-c2cn[nH]c2-c2c[nH]c(C(=O)N[C@H](CO)c3ccc(F)c(Cl)c3)c2)cc1Cl` [II-69], the Ki is under 1 µM.
Same read-out and setting: the result for `CC(C)NCc1ccc(-c2cn[nH]c2-c2c[nH]c(C(=O)N[C@H](CO)c3ccc(F)c(Cl)c3)c2)cc1Cl` [II-70] reads under 1 µM.
The same measure, in the same setting: the result for `CCNC(=O)CNCc1ccc(-c2cn[nH]c2-c2c[nH]c(C(=O)N[C@H](CO)c3ccc(F)c(Cl)c3)c2)cc1Cl` [II-71] reads under 1 µM; that for `CCOC(=O)CC(C)NCc1ccc(-c2cn[nH]c2-c2c[nH]c(C(=O)N[C@H](CO)c3ccc(F)c(Cl)c3)c2)cc1Cl` (stereo partly shown) [II-72], under 1 µM.
